Assay results from publication PMC12310023 (PLOS Neglected Tropical Diseases, 2025).
Where two headings read alike, the source gives them in different places.

Key:
[1] = test system: C. parvum Bunch Grass Farms isolate; experiment: Calibr high-content imaging Cryptosporidium panel; format: cell-based, Cryptosporidium parvum; details: Cryptosporidium parvum
NLuc C. parvum (Calibr) = experiment: Calibr panel, UA Nanoluc C. parvum count; format: cell-based; details: Cryptosporidium parvum
HsSrC = HsSrC (Homo sapiens, UniProt P12931); experiment: SrC enzyme inhibition; format: biochemical
Description: […]. […] All other methods are specified in S1 File.

[2] = Plasma concentrations in calf model; format: in vivo; details: after BKI-1708 5 mg/kg BID
[3] = Dog PK (r10 PO 1, r11 IV 1, r12-r14 PO 3, 10, 30 mg/kg); format: in vivo; details: after BKI-1708 PO 1 mg/kg
[4] = Monkey PK (r15 PO 1, r16 IV 1 mg/kg); format: in vivo
Cav1.2 (L-type) = Cav1.2 (L-type) (Homo sapiens, UniProt Q13936); experiment: Bioprofiling panel functional assay; format: cell-based; details: 6 pt dilutions starting at 10 μM; read-out: IC50, antagonist readout
[5] = test system: panel of 71 common liability targets; experiment: Cerep panel of 71 common liability targets; format: binding; details: read-out: IC50s, all Cerep targets except AT2
PPARγ = target: T1, PPARγ (Homo sapiens, UniProt P37231); experiment: Cerep binding assay; details: agonist radioligand, mean
T1 construct: Cerep (Eurofins, France)

CYP2C9 [6] = target: T2, CYP2C9 (Homo sapiens, UniProt P11712); experiment: in vitro; details: recombinant CYP2C9 supersomes
CYP2D6 [7] = target: T3, CYP2D6 (Homo sapiens, UniProt P10635); experiment: in vitro; details: recombinant CYP2D6 supersomes
CYP2C19 [8] = target: T4, CYP2C19 (Homo sapiens, UniProt P33261); experiment: in vitro; details: recombinant CYP2C19 supersomes
CYP3A4 [9] = target: T5, CYP3A4 (Homo sapiens, UniProt P08684); experiment: in vitro; details: recombinant CYP3A4 supersomes
hERG = hERG (Homo sapiens, UniProt Q12809); experiment: cell-based
CYP2C9 [10] = target: T2, CYP2C9; experiment: biochemical
CYP3A4 [11] = target: T5, CYP3A4; experiment: biochemical
Cytotoxicity = details: human, CRL-8155 B-lymphocyte cell line
Hepatocyte stability [12] = details: mouse
Hepatocyte stability [13] = details: rat
Hepatocyte stability [14] = details: monkey
Salmonella bacteria = experiment: microAmes (μAmes) test
[15] = Liver microsome stability; details: mouse, pooled liver microsomes
[16] = Liver microsome stability; details: monkey, pooled liver microsomes
[17] = Liver microsome stability; details: human, pooled liver microsomes
[18] = HCT-8 host cell count (Calibr); details: human
CYP3A12 = experiment: CYP Induction Assay in dog hepatocytes; details: 30 and 100 μM, 48 h
[19] = Plasma protein binding, equilibrium dialysis; details: mouse
CYP2D6 [20] = target: T3, CYP2D6; experiment: CYP reaction phenotyping, recombinant supersomes
CYP2C19 [21] = target: T4, CYP2C19; experiment: CYP reaction phenotyping, recombinant supersomes
CYP3A4 [22] = target: T5, CYP3A4; experiment: CYP reaction phenotyping, recombinant supersomes
[23] = Mouse plasma, brain and GI exposure PK, Balb/c, 30 mg/kg PO; details: 6 h, after BKI-1708
[24] = liver microsomes and primary hepatocytes

T3 sequence (P10635 whole entry): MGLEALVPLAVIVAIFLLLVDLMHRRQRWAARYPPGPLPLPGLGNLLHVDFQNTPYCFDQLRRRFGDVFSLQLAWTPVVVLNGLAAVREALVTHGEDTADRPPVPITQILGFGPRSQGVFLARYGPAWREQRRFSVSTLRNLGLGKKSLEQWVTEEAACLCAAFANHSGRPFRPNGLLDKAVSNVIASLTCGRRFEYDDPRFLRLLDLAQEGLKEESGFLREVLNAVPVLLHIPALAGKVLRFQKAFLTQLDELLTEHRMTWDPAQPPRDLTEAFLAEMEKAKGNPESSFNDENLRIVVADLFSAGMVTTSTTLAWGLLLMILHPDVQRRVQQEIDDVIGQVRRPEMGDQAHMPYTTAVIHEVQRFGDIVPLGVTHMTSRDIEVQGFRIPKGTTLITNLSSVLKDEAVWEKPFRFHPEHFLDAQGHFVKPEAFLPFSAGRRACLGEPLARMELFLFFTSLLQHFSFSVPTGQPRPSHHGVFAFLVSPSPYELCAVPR
T5 sequence (P08684 whole entry): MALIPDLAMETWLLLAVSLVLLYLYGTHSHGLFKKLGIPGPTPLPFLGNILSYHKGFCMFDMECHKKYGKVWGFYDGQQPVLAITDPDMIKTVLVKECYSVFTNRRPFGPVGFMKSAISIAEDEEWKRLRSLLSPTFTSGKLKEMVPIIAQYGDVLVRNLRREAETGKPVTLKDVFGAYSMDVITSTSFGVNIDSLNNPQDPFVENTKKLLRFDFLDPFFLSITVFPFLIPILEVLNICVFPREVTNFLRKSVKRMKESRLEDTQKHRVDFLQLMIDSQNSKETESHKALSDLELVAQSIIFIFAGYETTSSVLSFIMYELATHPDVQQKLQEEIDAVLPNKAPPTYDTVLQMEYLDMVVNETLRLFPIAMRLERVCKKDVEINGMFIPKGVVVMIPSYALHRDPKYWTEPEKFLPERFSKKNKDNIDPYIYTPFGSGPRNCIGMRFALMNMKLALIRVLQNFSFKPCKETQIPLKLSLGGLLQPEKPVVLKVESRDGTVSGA
T2 sequence (P11712 whole entry): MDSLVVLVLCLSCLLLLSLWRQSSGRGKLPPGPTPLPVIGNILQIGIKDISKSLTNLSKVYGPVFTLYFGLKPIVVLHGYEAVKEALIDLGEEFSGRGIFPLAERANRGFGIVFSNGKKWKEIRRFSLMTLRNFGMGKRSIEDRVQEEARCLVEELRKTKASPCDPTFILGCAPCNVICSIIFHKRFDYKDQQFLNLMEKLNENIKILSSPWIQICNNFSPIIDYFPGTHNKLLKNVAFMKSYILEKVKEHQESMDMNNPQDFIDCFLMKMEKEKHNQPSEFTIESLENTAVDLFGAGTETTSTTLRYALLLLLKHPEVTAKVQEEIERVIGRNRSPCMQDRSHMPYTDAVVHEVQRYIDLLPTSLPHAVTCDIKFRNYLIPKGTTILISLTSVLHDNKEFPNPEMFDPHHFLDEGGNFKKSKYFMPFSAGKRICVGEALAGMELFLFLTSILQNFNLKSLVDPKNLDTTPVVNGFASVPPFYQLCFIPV
T4 sequence (P33261 whole entry): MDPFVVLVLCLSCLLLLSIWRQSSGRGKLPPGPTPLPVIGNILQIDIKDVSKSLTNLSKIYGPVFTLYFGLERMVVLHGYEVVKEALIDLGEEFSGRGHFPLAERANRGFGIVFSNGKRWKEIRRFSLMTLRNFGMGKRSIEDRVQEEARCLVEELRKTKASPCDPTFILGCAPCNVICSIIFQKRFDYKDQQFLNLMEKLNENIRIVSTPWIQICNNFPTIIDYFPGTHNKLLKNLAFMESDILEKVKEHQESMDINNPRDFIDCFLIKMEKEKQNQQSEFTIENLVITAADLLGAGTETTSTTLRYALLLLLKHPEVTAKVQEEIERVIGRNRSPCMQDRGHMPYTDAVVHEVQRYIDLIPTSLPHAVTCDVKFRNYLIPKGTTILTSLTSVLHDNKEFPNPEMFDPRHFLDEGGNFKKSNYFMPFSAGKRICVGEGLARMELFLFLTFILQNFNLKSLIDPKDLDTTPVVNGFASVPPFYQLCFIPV
T1 sequence (P37231 whole entry): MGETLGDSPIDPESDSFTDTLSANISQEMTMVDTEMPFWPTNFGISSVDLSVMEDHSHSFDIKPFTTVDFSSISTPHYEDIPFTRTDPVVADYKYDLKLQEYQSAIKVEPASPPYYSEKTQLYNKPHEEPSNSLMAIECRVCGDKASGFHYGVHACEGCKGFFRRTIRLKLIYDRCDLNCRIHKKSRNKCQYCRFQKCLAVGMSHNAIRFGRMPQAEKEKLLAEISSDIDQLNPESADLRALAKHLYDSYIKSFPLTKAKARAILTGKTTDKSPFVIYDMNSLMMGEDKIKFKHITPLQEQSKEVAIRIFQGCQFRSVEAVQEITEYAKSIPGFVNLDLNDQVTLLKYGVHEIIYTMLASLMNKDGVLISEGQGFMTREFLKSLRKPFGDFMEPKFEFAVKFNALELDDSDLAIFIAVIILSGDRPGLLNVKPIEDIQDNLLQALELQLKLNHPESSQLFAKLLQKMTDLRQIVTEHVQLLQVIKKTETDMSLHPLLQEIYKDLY
Chain of HsSrC (P12931 whole entry): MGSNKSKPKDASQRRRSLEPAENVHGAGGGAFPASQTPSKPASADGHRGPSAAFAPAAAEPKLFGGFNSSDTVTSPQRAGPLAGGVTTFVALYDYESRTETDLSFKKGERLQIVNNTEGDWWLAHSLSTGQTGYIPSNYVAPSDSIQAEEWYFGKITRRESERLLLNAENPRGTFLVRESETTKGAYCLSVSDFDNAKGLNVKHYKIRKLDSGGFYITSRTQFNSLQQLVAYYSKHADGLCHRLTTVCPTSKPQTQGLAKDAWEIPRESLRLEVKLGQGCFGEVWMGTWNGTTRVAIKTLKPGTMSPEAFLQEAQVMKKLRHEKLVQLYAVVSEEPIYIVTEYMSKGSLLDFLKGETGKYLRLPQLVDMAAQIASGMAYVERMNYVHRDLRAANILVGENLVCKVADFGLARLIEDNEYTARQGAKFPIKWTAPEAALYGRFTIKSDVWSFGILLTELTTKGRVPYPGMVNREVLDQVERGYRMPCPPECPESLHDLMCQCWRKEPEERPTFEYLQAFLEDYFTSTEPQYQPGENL
Chain of hERG (Q12809 whole entry): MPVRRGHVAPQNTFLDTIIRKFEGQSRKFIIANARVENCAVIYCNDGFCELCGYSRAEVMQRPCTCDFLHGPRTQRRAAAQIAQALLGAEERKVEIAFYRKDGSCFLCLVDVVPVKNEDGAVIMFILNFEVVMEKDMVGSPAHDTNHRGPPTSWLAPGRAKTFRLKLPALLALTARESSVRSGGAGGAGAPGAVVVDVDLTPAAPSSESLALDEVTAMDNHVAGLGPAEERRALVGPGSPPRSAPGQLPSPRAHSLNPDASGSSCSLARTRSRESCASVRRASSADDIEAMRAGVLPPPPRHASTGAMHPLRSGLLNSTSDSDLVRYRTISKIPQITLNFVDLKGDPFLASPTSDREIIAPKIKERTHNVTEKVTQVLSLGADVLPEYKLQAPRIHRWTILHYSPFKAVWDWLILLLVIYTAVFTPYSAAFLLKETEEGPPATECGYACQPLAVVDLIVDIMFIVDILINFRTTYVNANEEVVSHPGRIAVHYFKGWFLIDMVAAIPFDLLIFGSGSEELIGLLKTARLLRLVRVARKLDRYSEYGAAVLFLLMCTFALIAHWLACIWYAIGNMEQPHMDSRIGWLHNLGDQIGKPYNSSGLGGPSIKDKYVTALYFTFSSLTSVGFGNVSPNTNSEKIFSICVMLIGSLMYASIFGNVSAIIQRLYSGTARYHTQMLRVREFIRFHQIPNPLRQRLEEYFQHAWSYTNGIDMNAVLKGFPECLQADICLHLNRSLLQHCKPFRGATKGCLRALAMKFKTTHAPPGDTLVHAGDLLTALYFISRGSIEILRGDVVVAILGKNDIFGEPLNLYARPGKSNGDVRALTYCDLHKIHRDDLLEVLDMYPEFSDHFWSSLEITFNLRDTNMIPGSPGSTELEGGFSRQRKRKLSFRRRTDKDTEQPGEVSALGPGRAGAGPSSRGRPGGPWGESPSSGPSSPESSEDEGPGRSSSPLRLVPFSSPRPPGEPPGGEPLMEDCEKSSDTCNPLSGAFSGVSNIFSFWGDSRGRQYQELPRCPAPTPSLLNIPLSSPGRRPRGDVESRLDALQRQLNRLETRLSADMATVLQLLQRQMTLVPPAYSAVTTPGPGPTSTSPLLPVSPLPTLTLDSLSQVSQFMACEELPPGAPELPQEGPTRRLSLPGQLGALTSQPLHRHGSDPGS

CC1(C)Cn2nc(-c3ccc4cc(OC5CC5)ccc4c3)c(C(N)=O)c2NC1O (stereo not shown) [M2]
EC50 [1]: 320 nM
EC90 [1]: 770 nM
EC50 ([1]; read-out: Bunch Grass Farm C. parvum Count EC50, Crypto Panel 3 Replicate 1): 388 nM
EC50 ([1]; read-out: Bunch Grass Farm C. parvum Count EC50, Crypto Panel 3 Replicate 2): 247 nM
EC90 ([1]; read-out: Bunch Grass Farm C. parvum Count EC90, Replicate 1): 966 nM
EC90 ([1]; read-out: Bunch Grass Farm C. parvum Count EC90, Replicate 2): 569 nM
EC50 (NLuc C. parvum (Calibr); Replicate 1, read-out: UA Nanoluc C. parvum Count EC50): 468 nM
EC90 (NLuc C. parvum (Calibr); Replicate 1, read-out: UA Nanoluc C. parvum Count EC90): 1460 nM
EC50 (NLuc C. parvum (Calibr); Replicate 2, read-out: UA Nanoluc C. parvum Count EC50): 212 nM
EC90 (NLuc C. parvum (Calibr); Replicate 2, read-out: UA Nanoluc C. parvum Count EC90): 1010 nM
EC50 (NLuc C. parvum (Calibr); read-out: EC50): 340 nM
EC90 (NLuc C. parvum (Calibr); read-out: EC90): 1240 nM
IC50 (HsSrC): > 10000 nM
average peak concentration of M2 [2]: 7.1 ± 4.4 µM
M2 AUC0-inf [3]: 196 ± 12 µmol·min/L
M2 AUC0-inf ([4]; after BKI-1708 IV 1 mg/kg): 63 ± 9 µmol·min/L
M2 AUC0-inf ([4]; after BKI-1708 PO 1 mg/kg): 58 ± 13 µmol·min/L
IC50 (Cav1.2 (L-type)): 8100 nM
IC50 [5]: > 10000 nM
% inhibition of control specific binding (PPARγ; 10 μM): 70.1%
inhibition at 10 µM (PPARγ; read-out: % inhibition of control specific binding): 70%
CLint scaled (CYP2C9 [6]): < 1.78 mL/min/kg
half-life (CYP2C9 [6]): > 4 h
CLint scaled (CYP2D6 [7]): < 0.183 mL/min/kg
half-life (CYP2D6 [7]): > 4 h
CLint scaled (CYP2C19 [8]): < 0.117 mL/min/kg
half-life (CYP2C19 [8]): > 4 h
CLint scaled (CYP3A4 [9]): 5.02 mL/min/kg
half-life (CYP3A4 [9]): 0.817 h
IC50 (hERG): 6200 nM
IC50 (CYP2C9 [10]): > 40000 nM
IC50 (CYP3A4 [11]): > 40000 nM
CC50 (Cytotoxicity): 15600 nM
LM:hepatocyte CLint_scaled ratio (Hepatocyte stability [12]; [24]): 1.7
CLint scaled (Hepatocyte stability [12]; primary hepatocytes): 45 mL/min/kg
half-life (Hepatocyte stability [12]; primary hepatocytes): 4.37 h
hepatocyte CLint (Hepatocyte stability [12]; primary hepatocytes): 5.3 µL/min/1e6 cells
LM:hepatocyte CLint_scaled ratio (Hepatocyte stability [13]; [24]): <0.7
CLint scaled (Hepatocyte stability [13]; primary hepatocytes): 63.3 mL/min/kg
half-life (Hepatocyte stability [13]; primary hepatocytes): 1.75 h
hepatocyte CLint (Hepatocyte stability [13]; primary hepatocytes): 13.2 µL/min/1e6 cells
LM:hepatocyte CLint_scaled ratio (Hepatocyte stability [14]; [24]): 5.5
CLint scaled (Hepatocyte stability [14]; primary hepatocytes): 10 mL/min/kg
half-life (Hepatocyte stability [14]; primary hepatocytes): 6.48 h
hepatocyte CLint (Hepatocyte stability [14]; primary hepatocytes): 3.6 µL/min/1e6 cells
μAmes test result (Salmonella bacteria): negative
CLint scaled [15]: 75 mL/min/kg
half-life [15]: 1.97 h
microsomal CLint [15]: 23.6 µL/min/mg
CLint scaled [16]: 55 mL/min/kg
half-life [16]: 0.95 h
microsomal CLint [16]: 48.6 µL/min/mg
CLint scaled [17]: < 25 mL/min/kg
half-life [17]: > 2 h
microsomal CLint [17]: < 23.1 µL/min/mg
CC50 ([18]; CC50, HCT-8 cells infected with BGF Cp, Replicate 1): > 25000 nM
CC50 ([18]; CC50, HCT-8 cells infected with BGF Cp, Replicate 2): > 25000 nM
CC50 ([18]; CC50, HCT-8 cells infected with Ch, Replicate 1): > 25000 nM
CC50 ([18]; CC50, HCT-8 cells infected with Ch, Replicate 2): > 25000 nM
CC50 ([18]; CC50, HCT-8 cells infected with UA Nluc Cp, Replicate 1): > 25000 nM
CC50 ([18]; CC50, HCT-8 cells infected with UA Nluc Cp, Replicate 2): > 25000 nM
induction of CYP3A12 (CYP3A12): not found to be inducers
fraction unbound [19]: 0.04
% contribution (CYP2D6 [20]): 0.0%
CLint (CYP2D6 [20]): <0.029 µL/min/pmol
% contribution (CYP2C19 [21]): 0.0%
CLint (CYP2C19 [21]): <0.029 µL/min/pmol
% contribution (CYP3A4 [22]): 47.9%
CLint (CYP3A4 [22]): 0.141 µL/min/pmol
M2 peak level in jejunum, ileum, cecum/colon [23]: > 1 µM
